We go through one molecule from ChEMBL document CHEMBL4229325, “Angiogenesis and cancer stem cells: New perspectives on therapy of ovarian cancer” (Eur J Med Chem, 2017).

Test [1] is described as follows: Cytotoxicity against human A2780/DX cells assessed as cell viability at 4 uM incubated for 72 hrs by MTT assay. It is filed as functional. The following applies: read-out: Activity.
Test [2] relates to NCI/ADR-RES. As to the kind of experiment: Cytotoxicity against human NCI-ADR-RES cells assessed as cell viability at 8 uM incubated for 72 hrs by MTT assay. Format: functional. The following applies: read-out: Activity.
Test [3] in a line: Cytotoxicity against human A2780/DX cells assessed as cell viability at 8 uM incubated for 72 hrs by MTT assay. Format: functional. The settings on record: read-out: Activity.
Test [4] can be described thus: Cytotoxicity against human A2780cis cells assessed as cell viability at 8 uM incubated for 72 hrs by MTT assay. It is filed as functional. The settings on record: read-out: Activity.
Test [5] can be described thus: Growth inhibition of human ovarian epithelial cancer cells at 0.5 uM in presence of 20 nM PTX. Format: functional.
In test [6] the test system is OVCAR-8. In words: Cytotoxicity against human OVCAR8 cells assessed as cell viability level at 4 uM incubated for 72 hrs by MTT assay. It is filed as functional.
Test [7] can be described thus: Growth inhibition of human ovarian cancer stem cells at 0.5 uM in presence of 20 nM PTX. It is filed as functional.
The subject of test [8] is 2008. As to the kind of experiment: Cytotoxicity against human OV2008 cells assessed as reduction in cell viability incubated for 24 hrs by MTT assay. The settings on record: Homo sapiens, 2008, 24 h. It is filed as functional, cell-based.
In test [9] the test system is OVCAR-8. As to the kind of experiment: Cytotoxicity against human OVCAR8 cells assessed as cell viability level at 8 uM incubated for 72 hrs by MTT assay. Format: functional.
For test [10], the system named is NCI/ADR-RES. As to the kind of experiment: Cytotoxicity against human NCI-ADR-RES cells assessed as cell viability at 4 uM incubated for 72 hrs by MTT assay. It is filed as functional. The settings on record: read-out: Activity.
In test [11] the test system is 2008. As to the kind of experiment: Cytotoxicity against human OV2008 cells assessed as reduction in cell viability incubated for 72 hrs by MTT assay. It is filed as functional, cell-based. The settings on record: Homo sapiens, 2008, 72 h.
The subject of a further test is C13. As to the kind of experiment: Antitumor activity against human C13 cells xenografted in mouse assessed as tumor volume at 5 mg/kg, ip dosed every other day for 3 weeks and measured every two days (reference value: 252.5 +/- 63.4 mm3). Format: functional.
For test [12], the system named is 2008. As to the kind of experiment: Cytotoxicity against human OV2008 cells assessed as reduction in cell viability incubated for 48 hrs by MTT assay. It is filed as functional, cell-based. The following applies: Homo sapiens, 2008, 48 h.

Molecules are shown by their SMILES.

In the case of `CC[C@@H](C(=O)[C@@H](C)[C@@H](O)[C@H](C)[C@@H]1O[C@@H]([C@@H](CC)C(=O)O)CC[C@@H]1C)[C@H]1O[C@]2(C=C[C@@H](O)[C@]3(CC[C@@](C)([C@H]4CC[C@](O)(CC)[C@H](C)O4)O3)O2)[C@H](C)C[C@@H]1C` [SALINOMYCIN], the viability at 4 µM (in [1]; with NCI/ADR-RES [10]) was 50% in each case. Further, the viability at 8 µM in the test on NCI/ADR-RES [2] came to 37%; in [3] it was 43%; in [4] it was 55%. Also, the “growth inhibition (GI)” value is given as 58% in test [5] and 59% in test [7]. The Activity with OVCAR-8 [6] amounted to 53%; with OVCAR-8 [9] it was 45%; with C13, 84.2 mm3. The IC50 was determined as 7.44 µM with 2008 [8], 3.2 µM with 2008 [11] and 4.78 µM in the test with 2008 [12].
